In PMC9232105, “S-Adenosylmethionine–responsive cystathionine β-synthase modulates sulfur metabolism and redox balance in Mycobacterium tuberculosis” (Science Advances, 2022):

Columns and labels:
[1] = biological target: T1, cystathionine β-synthase (MtbCbs, Rv1077) (Mycobacterium tuberculosis, UniProt P9WP51); experiment: acid-ninhydrin and LC-MS/MS cystathionine formation; lead acetate kinetics with Cys; format: biochemical; design: gene cbs; full-length WT MtbCbs
[2] = biological target: T1, cystathionine β-synthase (MtbCbs, Rv1077); format: biochemical; design: gene cbs; full-length WT MtbCbs
[3] = biological target: T1, cystathionine β-synthase (MtbCbs, Rv1077); experiment: cryo-EM ([…] Å) with SAM + Ser; cystathionine formation by acid-ninhydrin and LC-MS/MS; format: binding; design: gene cbs; full-length WT MtbCbs
[4] = biological target: T1, cystathionine β-synthase (MtbCbs, Rv1077); experiment: biochemical; format: binding; design: gene cbs; full-length WT MtbCbs, C-terminal 6×His
[5] = biological target: the molecule itself; experiment: SEC + SEC-MALS

Question: Which “acid-ninhydrin and LC-MS/MS cystathionine formation; lead acetate kinetics with” value [1] does the source give for `NC(CCS)C(=O)O` [L-Hcys] here?
Answer: MtbCbs produces Cysth from Ser + Hcys and Cys + Hcys

Question: For `N[C@@H](CS)C(=O)O` [L-cysteine], which “lead acetate H2S assay with steady-state kinetics; LC-MS/MS of lanthionine” value [2] is on record?
Answer: lead-acetate assay confirmed that MtbCbs generates H2S using Cys or Hcys + Cys but not from Hcys alone

Question: Which “cryo-EM (4.25 Å) with SAM + Ser; cystathionine formation by acid-ninhydrin and L” value [3] does the source give for `N[C@@H](CO)C(=O)O` [L-serine] here?
Answer: formation of external aldimine/aminoacrylate at the active site, which indicates association of Ser with PLP

Question: For `C[S+](CC[C@H](N)C(=O)[O-])C[C@H]1O[C@@H](n2cnc3c(N)ncnc32)[C@H](O)[C@@H]1O` (some centres unmarked) [S-adenosylmethionine], which Kd [4] is on record?
Answer: ~128 µM

B1: Mycobacterium tuberculosis cystathionine β-synthase (MtbCbs, Rv1077), wild type (enzyme)
chain: MRIAQHISELIGGTPLVRLNSVVPDGAGTVAAKVEYLNPGGSSKDRIAVKMIEAAEASGQLKPGGTIVEPTSGNTGVGLALVAQRRGYKCVFVCPDKVSEDKRNVLIAYGAEVVVCPTAVPPHDPASYYSVSDRLVRDIDGAWKPDQYANPEGPASHYVTTGPEIWADTEGKVTHFVAGIGTGGTITGAGRYLKEVSGGRVRIVGADPEGSVYSGGAGRPYLVEGVGEDFWPAAYDPSVPDEIIAVSDSDSFDMTRRLAREEAMLVGGSCGMAVVAALKVAEEAGPDALIVVLLPDGGRGYMSKIFNDAWMSSYGFLRSRLDGSTEQSTVGDVLRRKSGALPALVHTHPSETVRDAIGILREYGVSQMPVVGAEPPVMAGEVAGSVSERELLSAVFEGRAKLADAVSAHMSPPLRMIGAGELVSAAGKALRDWDALMVVEEGKPVGVITRYDLLGFLSEGAGRR
modifications: PLP bound to K44 (internal aldimine)
notes: also called WT MtbCbs; native MtbCbs
Question: B1 was tested. Which “stoichiometry N” value [5] did it give?
Answer: 4
